The source of these data is paper PMC3401907, “Cellular Uptakes, Biostabilities and Anti-miR-210 Activities of Chiral Arginine-PNAs in Leukaemic K562 Cells” (Chembiochem, 2012).

For data set [1], the system named is K562 cells. As to the kind of experiment: Cellular uptake of fluorescein-labelled PNAs by FACS analysis. The format is cell-based, human. The following applies: 24 h incubation; for change of cellular uptake in the presence of serum: medium with serum vs serum-free, FACS. The protocol: We therefore studied the uptake of backbone-modified PNAs in the same cellular model and compared the obtained results with those observed in the study of PNA1 and PNA2. K562 cells were incubated in the presence of increasing concentrations of fluorescein-labelled PNAs (PNA1–6-Fl) for 24 and 48 h and analysed by fluorescence-activated cell sorting analysis (FACS), giving the results shown in Figure 3. Because different PNA structures could be affected by proteases present in serum, leading to different cellular uptakes, these experiments were conducted both in the presence and in the absence of serum.
Human cell lines and culture conditions: Human leukaemia K562 cells were cultured under humidified CO2 (5 %)/air in RPMI 1640 medium (Sigma) supplemented with foetal bovine serum (FBS, 10 %, Analitical de Mori, Milan, Italy), penicillin (50 units mL^−1) and streptomycin (50 μg mL^−1).[26] Mithramycin (MTH) was from Sigma. Stock solutions of MTH (100 μM) were stored at −20 °C in the dark and diluted immediately before use. Treatment of K562 cells with MTH was carried out by addition of the appropriate drug concentrations at the beginning of the cultures (cells were seeded at 30 000 mL^−1). The medium was not changed during the induction period. To determine antiproliferative activity, cell growth was studied by determining the cell number per mL with a Z1 Coulter Counter (Coulter Electronics, Hialeah, FL, USA). Erythroid differentiated K562 cells containing haemoglobin were detected by specific reaction with a benzidine/hydrogen peroxide solution as reported elsewhere.[26] The final concentration of benzidine was 0.2 % in glacial acetic acid (5 M) and H2O2 (10 %).
(§1) FACS analysis: For determination of fluorescence intensity by FACScan (Becton Dickinson, Franklin Lakes, NJ, USA), cells (either in medium supplemented with serum or under serum-free conditions) were incubated with the indicated concentrations of PNAs for different lengths of time, harvested and washed. The cells (3×10^5) were then analysed with the aid of the CellQuest version 3.3 software (Becton Dickinson), with use of the FL1 channel to detect green fluorescence. The results were expressed as median fold (i.e., the ratio between the median fluorescence intensity values obtained in the presence and in the absence of treatment, respectively). A graphic presentation of data was finally obtained through histograms, showing the number of cells versus the expressed fluorescence intensity. In some experiments we pre-incubated fluorescence-labelled PNAs (2 μM) for 10 min at room temperature in the dark with trypsin/EDTA (0.05 %, 2 and 4 μL) before addition to the cells.
A general note: In flow cytometry, cells or beads pass a laser one at a time.

The subject of data set [2] is K562 cells. Kind of data set: Cellular uptake (FACS) after pre-incubation with trypsin. The format is cell-based, human. Particulars: PNA 2 μM pre-incubated 10 min at room temperature with trypsin (0.012–0.025 %), then K562 cells in the absence of serum. Here is the method:
In order to explore the effect of protection against proteases further, pre-incubation of the PNA–peptide conjugate PNA2-Fl and the modified PNAs PNA3-Fl, PNA4-Fl, PNA5-Fl and PNA6-Fl was performed with trypsin (0.012–0.025 %) before allowing interaction with target K562 cells in the absence of serum (see Figure 4). […] The embedding of arginine residues into the PNA backbone thus allows efficient cellular uptake to be achieved without the risk of degradation even by a basic amino-acid-specific peptidase. In contrast, the carrier peptide of PNA2-Fl is to a certain degree an Achilles' heel of the molecule, leading to possible degradation by proteases, an effect worth considering in view of possible developments of PNAs as drugs based on anti-miR activity.
as §1

Data set [3] has as its system DNA1 (full-match antiparallel DNA). Kind of data set: Melting temperature (Tm) of PNA:DNA duplexes, full-match DNA. Format: binding. Particulars: UV absorbance at 260 nm, strand concentration 5 μM; for Tm, DNA1 in urea (5 M): PBS buffer pH 7 (NaCl 100 mM, NaH2PO4 10 mM, EDTA 0.1 mM) with urea 5 M; for Tm, DNA1 in water: PBS buffer pH 7, no urea, 18 to 90 °C at 1 °C/min. The protocol:
(§2) Measurements of Tm values: The Tm values were determined with a Lambda Bio 20 spectrophotometer and a Peltier PTP6 temperature programmer. Thermal denaturation profiles were measured by monitoring the absorbance at 260 nm from 18 to 90 °C with a heating rate of 1 °C min^−1 and recording every 0.1 °C. […]

Data set [4] has as its system RNA1 (target region of miR-210). As to the kind of experiment: Melting temperature (Tm) of PNA:RNA duplexes, full-match RNA. The format is binding. Particulars: UV absorbance at 260 nm, strand concentration 5 μM; for Tm, RNA1 in water: PBS buffer pH 7, no urea; for Tm, RNA1 in urea (5 M): PBS buffer pH 7 with urea 5 M. The protocol: as §2
For a further data set, the system named is miR-210. As to the kind of experiment: miR-210 content by RT-qPCR analysis. The format is cell-based, human. Particulars: K562 cells, 24 h; for miR-210 inhibition upon treatment with mithramycin: PNA 2 μM with MTH 15 nM, relative to pept-1 and MTH; for inhibition of miR-210 bioavailability (miR-210 content): PNA 2 μM, Figure 5 A and B, relative to pept-1. Here is the method: K562 cells were treated with 15 nM mithramycin in the presence of a PNA (2 μM), and after 24 h RNA was isolated and miR-210 was assayed by RT-qPCR analysis. This type of test has been used to evaluate miR content in many studies because it allows the free-miR content to be evaluated. […] Figure 5 A and B reports the obtained data, showing that inhibition of miR bioavailability was induced both with the modified PNA and with the peptide-conjugated one, whereas in the case of PNA1 it was unchanged. […] This might be related to inhibition of pre-miR maturation or to unavailability of the miR to the qRT-PCR analysis due to strong complexation with the PNA. In either case the bioavailability of the miR for targeting other genes should be reduced.
Transfection procedures: Anti-miR-210 PNAs were directly added to the cellular medium to reach the indicated final concentrations. K562 cells were cultured in 24-well plates starting from the initial density of 30 000 cells per mL. MTH was administrated together with anti-miR PNAs.
RNA extraction: Cells were isolated by centrifugation at 1500 rpm for 10 min at 4 °C, washed in PBS and lysed in Tri-reagent (Sigma–Aldrich) according to the manufacturer's instructions. The isolated RNA was washed once with cold ethanol (75 %), dried and dissolved in ultrapure nuclease-free water.
Real-time quantitative PCR: For microRNA quantification with real-time RT-PCR reagents, the primers and probes were obtained from Applied Biosystems. Reverse transcriptase (RT) reactions were performed with a TaqMan MicroRNA Reverse Transcription Kit (Applied Biosystems) for hsa-miR-210, hsa-miR-10a, hsa-miR-93, hsa-miR-99b, hsa-miR-126, hsa-miR-149, hsa-miR-424, hsa-miR-483-5p, hsa-miR-625, hsa-let-7c and the iQTM5 real-time PCR System Instrument (Bio-Rad). Relative expression was calculated by the comparative cycle threshold method and U6 microRNA was used as reference gene to normalise all RNA samples, because it is constant in the assayed samples by miR-profiling and quantitative RT-PCR analysis as previously reported.[25]
A general note: Real-time PCR tracks product formation cycle by cycle.

In data set [5] the test system is DNA2 (mismatched DNA, G→T). Kind of data set: Melting temperature (Tm) of PNA:DNA duplexes, single-mismatch DNA. The format is binding. Particulars: for Tm, DNA2 in urea (5 M): single mismatch, UV absorbance at 260 nm, PBS buffer pH 7 with urea 5 M, strand concentration 5 μM. The text has this: (§3) Sequence selectivity is a very important issue in view of the use of PNAs in cellular systems, because partial hybridisation might occur with other unrelated miRNAs or, most importantly, with mRNA targets. We analysed the sequence selectivities of our PNAs with stricter models (DNA2 and RNA2) involving single base mismatches (G→T or G→U) located in the middle of the target sequences. In each case the sequence selectivity was confirmed by significant lowering of the melting temperature. The ranges of ΔTm due to the presence of these single mismatches were 8–21 °C for DNA, with the maximum drop in the case of PNA4 and the minimum observed in that of PNA6. For the latter it should be considered that the mismatch was facing the last chiral monomer, preventing the cooperative effect observed in the case of 2D-modifed highly constrained PNA.[22]
(§4) Measurements of Tm values: The Tm values were determined with a Lambda Bio 20 spectrophotometer and a Peltier PTP6 temperature programmer. Thermal denaturation profiles were measured by monitoring the absorbance at 260 nm from 18 to 90 °C with a heating rate of 1 °C min^−1 and recording every 0.1 °C. Measurement conditions: [PNA]=[DNA] or [RNA]=5 μM in PBS buffer [pH 7.0, NaCl (100 mM), NaH2PO4⋅H2O (10 mM), EDTA (0.1 mM)] with urea (5 M).

Data set [6] deals with RNA2 (mismatched RNA, G→U). Kind of data set: Melting temperature (Tm) of PNA:RNA duplexes, single-mismatch RNA. The format is binding. The following applies: UV absorbance at 260 nm, PBS buffer pH 7 with urea 5 M, strand concentration 5 μM.
Excerpt: as §3, §4

Regarding “Fl-AEEA-C2DArgC2DArgG2DArgC2DArgT2DArgG2DArgT2DArgC2DArgACACGCACAG-NH2 [PNA6-Fl, fluorescein-labelled PNA6]”, in the data set on K562 cells [1], the “change of cellular uptake in the presence of serum” value (“change of cellular uptake” for short) is “no decreases in uptake”. In addition, the “effect of trypsin pre-incubation on cellular uptake” value (“effect of trypsin pre-incubation” below) with K562 cells [2] is “does not affect uptake”.
With “Fl-AEEA-C5LArgC5LArgG5LArgC5LArgT5LArgG5LArgT5LArgC5LArgACACGCACAG-NH2 [PNA4-Fl, fluorescein-labelled PNA4]”, in the data set on K562 cells [1], the “change of cellular uptake” value is “only minor decreases in uptake”. In addition, in the data set with K562 cells [2], the “effect of trypsin pre-incubation” value is on record as “does not affect uptake”.
The corresponding values for “Fl-AEEA-CC2DArgGC2DArgTG2DArgTC2DArgAC2DArgAC2DArgGC2DArgAC2DArg AG-NH2 [PNA5-Fl, fluorescein-labelled PNA5]” are “no decreases in uptake” and “does not affect uptake”.
The corresponding values for “Fl-AEEA-CC5LArgGC5LArgTG5LArgTC5LArgAC5LArgAC5LArgGC5LArgAC5LArgAG-NH2 [PNA3-Fl, fluorescein-labelled PNA3]” are “only minor decreases in uptake” and “does not affect uptake”.
On to “Flu-AEEA-R8-CCGCTGTCACACGCACAG-NH2 [PNA2-Fl, fluorescein-labelled R8-conjugated PNA2, reference compound]”, for which the “change of cellular uptake” value in the data set with K562 cells [1] is on record as “decreased uptake”. Besides, the “cellular uptake (internalisation) in the absence of serum” value in the data set on K562 cells [1] (serum-free, FACS FL1 channel) is listed as “efficiently internalised”. The “effect of trypsin pre-incubation” value in the data set on K562 cells [2] is “trypsin treatment affects the cellular uptake”.
Take “H-C2DArgC2DArgG2DArgC2DArgT2DArgG2DArgT2DArgC2DArgACACGCACAG-NH2 [PNA6, 2D Arg (C2) backbone-modified 18-mer PNA, model 2, stretch of consecutive modified monomers]”: in data set [3], the “Tm, DNA1 in urea (5 M)” value is 77 °C and the “Tm, DNA1 in water” value was more than 90 °C. In addition, in data set [4], the “Tm, RNA1 in water” value was more than 90 °C and the “Tm, RNA1 in urea (5 M)” value came out at 75 °C. In the data set with miR-210, the “miR-210 inhibition upon treatment with mithramycin” value is “significant inhibition, but to lesser extents” and the “inhibition of miR-210 bioavailability (miR-210 content)” value was “Stronger inhibition”. For the same substance, the “ΔTm due to single mismatch, DNA” value in data set [5] (DNA1 vs DNA2 (G→T in the middle of the target), urea 5 M) was determined as 8 °C. For the same substance, the “Tm, DNA2 in urea (5 M)” value in data set [5] amounted to 69 °C. For the same substance, the “Tm, RNA2 in urea (5 M)” value in data set [6] was 65 °C.
Regarding “H-CC2DARGGC2DARGTG2DARGTC2DARGAC2DARGAC2DARGGC2DARGAC2DARG AG-NH2 [PNA5, 2D Arg (C2) backbone-modified 18-mer PNA, model 1, alternating modified monomers]”, in data set [3], the “Tm, DNA1 in urea (5 M)” value stood at 74 °C and the “Tm, DNA1 in water” value is more than 90 °C. Further, in data set [4], the “Tm, RNA1 in water” value is more than 90 °C and the “Tm, RNA1 in urea (5 M)” value was 78 °C. In the data set with miR-210, the “miR-210 inhibition upon treatment with mithramycin” value is reported as “significant inhibition, but to lesser extents” and the “inhibition of miR-210 bioavailability (miR-210 content)” value was “less efficient inhibition”. Further, the “Tm, DNA2 in urea (5 M)” value in data set [5] was 64 °C. Further, the “Tm, RNA2 in urea (5 M)” value in data set [6] is 62 °C.
